# “And” between values parts separate entries of the source, which are not always exact repeats. Identical values can stand only once.
# How the values were obtained:
# Zika virus = experiment: Functional CPE-based assay to measure dose dependent changes in antiviral-drug inhibitory efficacy against Zika virus MR766 in Vero E6 miRFP670 cells (cotreated with P-gp inhibitor, CP100356). Cells are treated with antiviral candidates that are serially diluted. EC50 is reported via analysis of MTS assay as a readout of CPE. The assay has been performed by KU Leuven.; format: organism-based, Chlorocebus sabaeus, Vero C1008
# dengue virus type 2 = experiment: Functional assay to measure dose dependent changes in antiviral-drug inhibitory efficacy against Dengue virus type 2 New Guinea C in Vero E6 miRFP670 cells (cotreated with P-gp inhibitor, CP100356). Cells are treated with antiviral candidates that are serially diluted, following infection, cells are fixed. EC50 is reported via analysis of fluorescence intensity using high-content imager. The …; format: organism-based, Chlorocebus sabaeus, Vero C1008; settings: for EC90: P-gp concentration 500 nM, P-gp inhibitor CP100356
smiles,measurement,setting,value
CC(C)NC(=O)[C@H](Nc1ccc2c(c1)CNC2)c1cc(Cl)cc2[nH]c(-c3ccccc3)nc12,EC90,"Zika virus; Baseline response 0 %, EC90 CI (lower) 1.625 uM, EC90 CI (upper) 3.959 uM, Hill slope 3.776, Maximum measured 116.485 %, Maximum response 100 %, Minimum measured 3.087 %, P-gp concentration 500 nM, R squared 0.948, P-gp inhibitor CP100356",2.54 µM
same,EC90,"Zika virus; Zika virus, Vero C1008, Maximum measured -0.317 %, Minimum measured -11.958 %, P-gp concentration 500 nM, P-gp inhibitor CP100356",> 50 µM
same,EC90,"Zika virus; Zika virus, Vero C1008, Baseline response 0 %, Hill slope 1.53, Maximum measured 31.705 %, Maximum response 100 %, Minimum measured 3.074 %, P-gp concentration 500 nM, R squared 0.825, P-gp inhibitor CP100356",> 3.12 µM
same,EC90,"dengue virus type 2; Baseline response 0 %, Hill slope -0.821, Maximum measured 139.415 %, Maximum response 100 %, Minimum measured 43.862 %, R squared 0.144",> 50 µM
same,EC90,"dengue virus type 2; Baseline response 0 %, Hill slope -1.532, Maximum measured 181.616 %, Maximum response 100 %, Minimum measured 48.773 %, R squared 0.025",> 50 µM
same,EC90,"dengue virus type 2; Baseline response 0 %, Hill slope -1.75, Maximum measured 104.337 %, Maximum response 100 %, Minimum measured 20.383 %, R squared 0.733",> 12.5 µM
same,EC50,dengue virus type 2; vero c1008,5.05 µM and > 50 µM
O=C(Nc1ccc2c(c1)CNC2)c1cc(Cl)cc2[nH]c(-c3ccc(F)cc3O)nc12,EC50,"Zika virus; Zika virus, Vero C1008",> 0.781 µM
same,EC90,"Zika virus; Zika virus, Vero C1008, Baseline response 0 %, Hill slope 0.819, Maximum measured -0.871 %, Maximum response 100 %, Minimum measured -1.788 %, P-gp concentration 500 nM, R squared 0.426, P-gp inhibitor CP100356",> 0.781 µM
same,EC50,"dengue virus type 2; Dengue virus, Vero C1008",> 1.56 µM
same,EC90,"dengue virus type 2; Dengue virus, Vero C1008, Maximum measured 186.201 %, Minimum measured 124.759 %",> 1.56 µM
O=C(O)Cc1c[nH]c2cc(-c3cc(Cl)cc(NC(=O)OCc4ccccc4)c3)ccc12,EC50,"Zika virus; Zika virus, Vero C1008",> 50 µM
same,EC90,"Zika virus; Zika virus, Vero C1008, Baseline response 0 %, Hill slope 0.295, Maximum measured 15.391 %, Maximum response 100 %, Minimum measured 1.73 %, P-gp concentration 500 nM, R squared 0.19, P-gp inhibitor CP100356",> 50 µM
same,EC50,"dengue virus type 2; Dengue virus, Vero C1008",28.1 µM
same,EC90,"dengue virus type 2; Dengue virus, Vero C1008, Baseline response 0 %, Hill slope -3.369, Maximum measured 96.537 %, Maximum response 100 %, Minimum measured 12.115 %, R squared 0.802",> 50 µM
COc1cc(Br)cc(C(=O)Nc2ccc3c(c2)CNC3)c1,EC50,"Zika virus; Zika virus, Vero C1008",12.8 µM
same,EC90,"Zika virus; Zika virus, Vero C1008, Baseline response 0 %, EC90 CI (lower) 14.493 uM, EC90 CI (upper) 28.879 uM, Hill slope 4.703, Maximum measured 104.946 %, Maximum response 100 %, Minimum measured 1.527 %, P-gp concentration 500 nM, R squared 0.964, P-gp inhibitor CP100356",20.5 µM
same,EC50,"dengue virus type 2; Dengue virus, Vero C1008",> 25 µM
same,EC90,"dengue virus type 2; Dengue virus, Vero C1008, Baseline response 0 %, Hill slope -0.242, Maximum measured 88.855 %, Maximum response 100 %, Minimum measured 49.171 %, R squared 0.071",> 25 µM
CC(C)(C)OC(=O)N1Cc2ccc(N[C@H](C(=O)O)c3cc(Cl)cc4[nH]ncc34)cc2C1,EC50,"Zika virus; Zika virus, Vero C1008",> 50 µM
same,EC90,"Zika virus; Zika virus, Vero C1008, Baseline response 0 %, Hill slope -0.446, Maximum measured 2.879 %, Maximum response 100 %, Minimum measured -1.465 %, P-gp concentration 500 nM, R squared 0.442, P-gp inhibitor CP100356",> 50 µM
same,EC50,"dengue virus type 2; Dengue virus, Vero C1008",> 50 µM
same,EC90,"dengue virus type 2; Dengue virus, Vero C1008, Maximum measured 176.94 %, Minimum measured 116.898 %",> 50 µM
O=C(Nc1cc(Cl)cc(-c2ccc3[nH]c(C(=O)O)cc3c2)c1)OCc1ccccc1,EC50,"Zika virus; Zika virus, Vero C1008",> 25 µM
same,EC90,"Zika virus; Zika virus, Vero C1008, Baseline response 0 %, Hill slope 14.672, Maximum measured 32.342 %, Maximum response 100 %, Minimum measured -3.566 %, P-gp concentration 500 nM, R squared 0.926, P-gp inhibitor CP100356",> 25 µM
same,EC90,"dengue virus type 2; Baseline response 0 %, EC90 CI (lower) 8.977 uM, EC90 CI (upper) 21.139 uM, Hill slope -3.716, Maximum measured 111.991 %, Maximum response 100 %, Minimum measured 0.586 %, R squared 0.931",45 µM
same,EC90,"dengue virus type 2; Baseline response 0 %, Hill slope -1.036, Maximum measured 105.577 %, Maximum response 100 %, Minimum measured 51.847 %, R squared 0.535",> 12.5 µM
same,EC50,"dengue virus type 2; Dengue virus, Vero C1008",24.9 µM
same,EC50,dengue virus type 2; vero c1008,> 12.5 µM
N#Cc1cc2c(cc1NC(=O)c1cc(F)cc3[nH]ncc13)CNC2,EC50,"Zika virus; Zika virus, Vero C1008",2.09 µM
same,EC90,"Zika virus; Zika virus, Vero C1008, Baseline response 0 %, EC90 CI (lower) 2.64 uM, EC90 CI (upper) 7.54 uM, Hill slope 2.894, Maximum measured 123.396 %, Maximum response 100 %, Minimum measured 1.493 %, P-gp concentration 500 nM, R squared 0.93, P-gp inhibitor CP100356",4.46 µM
same,EC50,"dengue virus type 2; Dengue virus, Vero C1008",> 25 µM
same,EC90,"dengue virus type 2; Dengue virus, Vero C1008, Maximum measured 167.339 %, Minimum measured 79.168 %",> 25 µM
O=C(Nc1ccc2c(c1)CNC2)c1cccc2[nH]c(=O)[nH]c12,EC50,"Zika virus; Zika virus, Vero C1008",> 50 µM
same,EC90,"Zika virus; Zika virus, Vero C1008, Maximum measured 11.079 %, Minimum measured -6.229 %, P-gp concentration 500 nM, P-gp inhibitor CP100356",> 50 µM
same,EC50,"dengue virus type 2; Dengue virus, Vero C1008",> 12.5 µM
same,EC90,"dengue virus type 2; Dengue virus, Vero C1008, Baseline response 0 %, Hill slope 0.241, Maximum measured 94.031 %, Maximum response 100 %, Minimum measured 72.295 %, R squared 0.287",> 12.5 µM
C[C@H]1C(=O)Nc2ccc(C(=O)Nc3ccc4c(c3)CNC4)cc21,EC50,"Zika virus; Zika virus, Vero C1008",> 50 µM
same,EC90,"Zika virus; Zika virus, Vero C1008, Maximum measured 0.465 %, Minimum measured -1.56 %, P-gp concentration 500 nM, P-gp inhibitor CP100356",> 50 µM
same,EC50,"dengue virus type 2; Dengue virus, Vero C1008",> 50 µM
same,EC90,"dengue virus type 2; Dengue virus, Vero C1008, Maximum measured 179.475 %, Minimum measured 83.637 %",> 50 µM
CO[C@H]1C[C@H](n2ncc3c(C(=O)Nc4ccc5c(c4)CNC5)cc(Cl)cc32)C1,EC50,"Zika virus; Zika virus, Vero C1008",3.1 µM
same,EC90,"Zika virus; Zika virus, Vero C1008",3.53 µM
same,EC50,"dengue virus type 2; Dengue virus, Vero C1008",> 12.5 µM
same,EC90,"dengue virus type 2; Dengue virus, Vero C1008, Baseline response 0 %, Hill slope 0.569, Maximum measured 146.378 %, Maximum response 100 %, Minimum measured 74.589 %, R squared 0.043",> 12.5 µM
CCCn1cc2c(C(=O)Nc3ccc4c(c3)CNC4)cc(Cl)cc2n1,EC50,"Zika virus; Zika virus, Vero C1008",3.04 µM
same,EC90,"Zika virus; Zika virus, Vero C1008",3.55 µM
same,EC50,"dengue virus type 2; Dengue virus, Vero C1008",> 3.12 µM
same,EC90,"dengue virus type 2; Dengue virus, Vero C1008, Baseline response 0 %, Hill slope 1.203, Maximum measured 92.059 %, Maximum response 100 %, Minimum measured 55.102 %, R squared 0.785",> 3.12 µM
Clc1cc(CNc2ccc3c(c2)CNC3)c2cn[nH]c2c1,EC50,"Zika virus; Zika virus, Vero C1008",17.9 µM
same,EC90,"Zika virus; Zika virus, Vero C1008, Baseline response 0 %, Hill slope 3.353, Maximum measured 76.866 %, Maximum response 100 %, Minimum measured 0.884 %, P-gp concentration 500 nM, R squared 0.96, P-gp inhibitor CP100356",> 25 µM
same,EC50,"dengue virus type 2; Dengue virus, Vero C1008",3.18 µM
same,EC90,"dengue virus type 2; Dengue virus, Vero C1008, Baseline response 0 %, Hill slope -0.438, Maximum measured 74.942 %, Maximum response 100 %, Minimum measured 39.794 %, R squared 0.558",> 12.5 µM
Cc1cccc(-c2nc3c(C(=O)Nc4ccc5c(c4)CNC5)cc(F)cc3[nH]2)c1,EC50,"Zika virus; Zika virus, Vero C1008",> 50 µM
same,EC90,"Zika virus; Zika virus, Vero C1008, Maximum measured 1.316 %, Minimum measured -3.721 %, P-gp concentration 500 nM, P-gp inhibitor CP100356",> 50 µM
same,EC50,"dengue virus type 2; Dengue virus, Vero C1008",> 50 µM
same,EC90,"dengue virus type 2; Dengue virus, Vero C1008, Maximum measured 188.282 %, Minimum measured 128.713 %",> 50 µM
O=C(Nc1cc(Cl)cc(-c2cnn(Cc3ccc(C(=O)O)cc3)c2)c1)OCc1ccccc1,EC50,"Zika virus; Zika virus, Vero C1008",> 50 µM
same,EC90,"Zika virus; Zika virus, Vero C1008, Baseline response 0 %, Hill slope 1.126, Maximum measured 43.56 %, Maximum response 100 %, Minimum measured -3.769 %, P-gp concentration 500 nM, R squared 0.488, P-gp inhibitor CP100356",> 50 µM
same,EC50,"dengue virus type 2; Dengue virus, Vero C1008",25 µM
same,EC90,"dengue virus type 2; Dengue virus, Vero C1008, Baseline response 0 %, Hill slope -21.178, Maximum measured 148.823 %, Maximum response 100 %, Minimum measured 10.822 %, R squared 0.564",27.8 µM
O=C(Nc1ccc2c(c1)CNC2)c1cc(Cl)cc2c1cnn2C1CCC1,EC50,"Zika virus; Zika virus, Vero C1008",1.26 µM
same,EC90,"Zika virus; Zika virus, Vero C1008, Baseline response 0 %, EC90 CI (lower) 1.13 uM, EC90 CI (upper) 4.462 uM, Hill slope 3.792, Maximum measured 124.257 %, Maximum response 100 %, Minimum measured 13.491 %, P-gp concentration 500 nM, R squared 0.856, P-gp inhibitor CP100356",2.25 µM
same,EC50,"dengue virus type 2; Dengue virus, Vero C1008",> 6.25 µM
same,EC90,"dengue virus type 2; Dengue virus, Vero C1008, Maximum measured 167.025 %, Minimum measured 94.774 %",> 6.25 µM
O=C(Nc1ccc2c(c1)CNC2)c1cc(Cl)cc2[nH]c(-c3ccnn3C3CC3)nc12,EC50,"Zika virus; Zika virus, Vero C1008",> 0.781 µM
same,EC90,"Zika virus; Zika virus, Vero C1008, Baseline response 0 %, Hill slope 2.383, Maximum measured 38.126 %, Maximum response 100 %, Minimum measured 10.566 %, P-gp concentration 500 nM, R squared 0.88, P-gp inhibitor CP100356",> 0.781 µM
same,EC50,"dengue virus type 2; Dengue virus, Vero C1008",> 6.25 µM
same,EC90,"dengue virus type 2; Dengue virus, Vero C1008, Baseline response 0 %, Hill slope 11.741, Maximum measured 109.967 %, Maximum response 100 %, Minimum measured 87.357 %, R squared 0.219",> 6.25 µM
C=Cc1cc2c(cc1NC(=O)c1cc(F)cc3[nH]ncc13)CNC2,EC50,"Zika virus; Zika virus, Vero C1008",5.17 µM
same,EC90,"Zika virus; Zika virus, Vero C1008, Baseline response 0 %, EC90 CI (lower) 8.54 uM, EC90 CI (upper) 30.093 uM, Hill slope 1.942, Maximum measured 120.806 %, Maximum response 100 %, Minimum measured 10.445 %, P-gp concentration 500 nM, R squared 0.918, P-gp inhibitor CP100356",16 µM
same,EC50,"dengue virus type 2; Dengue virus, Vero C1008",> 6.25 µM
same,EC90,"dengue virus type 2; Dengue virus, Vero C1008, Maximum measured 131.207 %, Minimum measured 113.262 %",> 6.25 µM
O=C(Nc1ccc2c(c1)CNC2)c1cccc2c(C3CNC3)n[nH]c12,EC50,"Zika virus; Zika virus, Vero C1008",9.06 µM
same,EC90,"Zika virus; Zika virus, Vero C1008, Baseline response 0 %, EC90 CI (lower) 13.229 uM, EC90 CI (upper) 28.268 uM, Hill slope 2.896, Maximum measured 113.87 %, Maximum response 100 %, Minimum measured -0.433 %, P-gp concentration 500 nM, R squared 0.955, P-gp inhibitor CP100356",19.3 µM
same,EC50,"dengue virus type 2; Dengue virus, Vero C1008",> 50 µM
same,EC90,"dengue virus type 2; Dengue virus, Vero C1008, Maximum measured 103.764 %, Minimum measured 75.286 %",> 50 µM
